Format in all cases: cell-based
Assay [1] concerns Candida albicans Azole-R (20183.073). The assay is described as follows: microbe, parasite or virus in culture. Conditions: Candida albicans; CLSI broth microdilution, azole-resistant strain, duplicate; read-out: MIC. As for the experimental part:
(§1) Antifungal potency of the test article(s) was measured using the in vitro broth microdilution assay under test conditions described by the Clinical and Laboratory Standards Institute. Minimum Inhibitory Concentration (MIC) is defined as the lowest concentration of an agent that causes a specified reduction in visible growth of the microorganism. Minimum Effective Concentration (MEC) is defined as the lowest concentration of an agent that leads to the growth of small, rounded, compact hyphal forms, as compared to the hyphal growth typically seen in the growth control well. MIC values were determined for 9 Candida spp., and MEC values were determined for filamentous fungus species (Aspergillus fumigatus and Trichophyton rubrum). Details of the test article preparations and methodologies are described in Supplementary Material S1.
(§2) Following incubation, the test plates were visually examined and wells were scored for growth or complete growth inhibition to define the MIC values. Microscopy examination was used to determine the MEC values. Each test substance was evaluated in duplicate and the results are the duplicate test values. Vehicle-control and an active reference agent were used as blank and positive controls, respectively. […]
(§3) S1. In Vitro Testing, Test Article Preparations
(§4) The 5 mg/mL stock solution was prepared as the following. The refrigerated vial was equilibrated to room temperature. Test vial was reconstituted aseptically with 10.5 mL 0.9% NaCl. The powder was dissolved completely, mixing until a clear solution was ob-tained. The final concentration was 5.0 mg/mL of caspofungin freebase. The reconstituted solution was stable for 1 hr at room temperature. The 5 mg/mL stock solution was then […]
(§5) The refrigerated vial was equilibrated to room temperature. The powder was dis-solved completely, mixing until a clear solution was obtained. Test vial was reconstituted aseptically with 1.8 mL 0.9% NaCl. The white to off-white powder was dissolved com-pletely, mixing gently until a clear solution was obtained. The final concentration was 5.0 mg/mL of caspofungin freebase. The reconstituted solution was used within 1 hr at room temperature. The 5 mg/mL stock solution was then diluted with 0.9% NaCl to prepare the […]
(§6) 1.3. Caspofungin Diacetate
(§7) The 5 mg/mL API stock solution was prepared as the following. The refrigerated vial was equilibrated to room temperature. Test vial was filled aseptically with 1.8 mL 0.9%
(§8) NaCl. The powder was dissolved completely, mixing until a clear solution was obtained.
(§9) The final concentration was 5.0 mg/mL of caspofungin freebase. The reconstituted solu-tion was used within 1 hr at room temperature. The 5 mg/mL stock solution was then […]
(§10) g compound, corresponding to 1.2 mg active compound with a correction factor of 2.40 was added 0.375 mL of water for injection to generate the 3.2 mg/mL working stock solution for testing. The 3.2 mg/mL working stock solution was 2-fold diluted seri-ally in 0.9% NaCl to prepare a total of eleven 50-fold stock solutions, concentrations rang-ing from 3.2 to 0.003 mg/mL. A 4 μL aliquot of each dilution was added to 196 μL of broth medium seeded with the organism suspension in wells of a 96 well plate (fungal cell count: 1 x 10^3 to 1 x 10^4 colony forming units per mL). The final volume was 200 μL in each […]

Another assay concerns Candida krusei ATCC 6258. The assay is described as follows: microbe, parasite or virus in culture. Conditions: Pichia kudriavzevii, ATCC6258; CLSI broth microdilution, duplicate; read-out: MIC. As for the experimental part:
as §1, §2, §3, §4, §5, §6, §7, §8, §9, §10

The test system of assay [2] is Candida albicans ATCC90028 + 50%human serum. The assay is described as follows: microbe, parasite or virus in culture. To be noted: Candida albicans, ATCC90028, CLSI broth microdilution, duplicate, read-out: MIC. As for the experimental part:
as §1, §2, §3, §4, §5, §6, §7, §8, §9, §10

Assay [3] has as its system Candida albicans Azole-R (20186.025). The assay is described as follows: microbe, parasite or virus in culture. Conditions: Candida albicans. As for the experimental part:
as §1, §2, §3, §4, §5, §6, §7, §8, §9, §10

In assay [4] the test system is Candida glabrata ATCC 36583. The assay is described as follows: microbe, parasite or virus in culture. Conditions: Nakaseomyces glabratus, ATCC36583; CLSI broth microdilution, duplicate; read-out: MIC. As for the experimental part:
as §1, §2, §3, §4, §5, §6, §7, §8, §9, §10

In assay [5] the test system is Candida albicans ATCC44858. The assay is described as follows: microbe, parasite or virus in culture. Conditions: Candida albicans, ATCC44858; CLSI broth microdilution, visual, duplicate; read-out: MIC. As for the experimental part:
as §1, §2, §3, §4, §5, §6, §7, §8, §9, §10

For assay [6], the system named is Candida albicans ATCC90028. The assay is described as follows: microbe, parasite or virus in culture. Conditions: Candida albicans, ATCC90028; CLSI broth microdilution, visual, duplicate; read-out: MIC. As for the experimental part: as §1, §2, §3, §4, §5, §6, §7, §8, §9, §10
For assay [7], the system named is Candida parapsilosis ATCC 22019. The assay is described as follows: microbe, parasite or virus in culture. To be noted: Lodderomyces parapsilosis, ATCC22019; CLSI broth microdilution, duplicate; read-out: MIC. As for the experimental part: as §1, §2, §3, §4, §5, §6, §7, §8, §9, §10
For assay [8], the system named is Candida tropicalis ATCC 200956. The assay is described as follows: microbe, parasite or virus in culture. Conditions: Candida tropicalis, ATCC200956; CLSI broth microdilution, duplicate; read-out: MIC. As for the experimental part:
as §1, §2, §3, §4, §5, §6, §7, §8, §9, §10

Assay [9] deals with Aspergillus fumigatus ATCC204305. The assay is described as follows: Broth microdilution MEC. To be noted: CLSI broth microdilution, microscopy, duplicate. As for the experimental part: as §1, §2, §3, §4, §5, §6, §7, §8, §9, §10
For assay [10], the system named is Trichophyton rubrum ATCC 10218. The assay is described as follows: Broth microdilution MEC. Conditions: CLSI broth microdilution, microscopy, duplicate. As for the experimental part:
as §1, §2, §3, §4, §5, §6, §7, §8, §9, §10

In assay [11] the test system is Aspergillus fumigatus ATCC 13073. The assay is described as follows: Broth microdilution MEC. Conditions: CLSI broth microdilution, microscopy, duplicate. As for the experimental part: as §1, §2, §3, §4, §5, §6, §7, §8, §9, §10

Values after ≈ are worked out from the molar mass of the structure shown.

In the case of `C[C@@H]1[C@H](O)[C@@H](C)/C=C/C=C/C=C/C=C/C=C/C=C/C=C/[C@H](O[C@@H]2O[C@H](C)[C@@H](O)[C@H](N)[C@@H]2O)C[C@@H]2O[C@](O)(C[C@@H](O)C[C@@H](O)[C@H](O)CC[C@@H](O)C[C@@H](O)CC(=O)O[C@H]1C)C[C@H](O)[C@H]2C(=O)O` [Amphotericin B], the MIC in assay [1] is 0.125 µg/mL (≈ 0.135 µM); in the assay with Candida krusei ATCC 6258, 0.25 µg/mL (≈ 0.271 µM); in assay [2], 0.25 µg/mL (≈ 0.271 µM); in [3], 0.25 µg/mL (≈ 0.271 µM); in assay [4], 0.125 µg/mL (≈ 0.135 µM); in assay [5], 0.125 µg/mL (≈ 0.135 µM). Further, the MIC in assay [6] is 0.125 µg/mL (≈ 0.135 µM); in [7], 0.25 µg/mL (≈ 0.271 µM); in [8], 1 µg/mL (≈ 1.08 µM). Further, the MEC is on record as 0.5 µg/mL in [9], 0.125 µg/mL in [10] and 0.25 µg/mL in [11].
